Measurements as given in US20060122240A1, “Benzotriazoles and methods of prophylaxis or treatment of metabolic-related disorders thereof” (Arena Pharmaceuticals, Inc., priority 2002, published 2006).
pEC50: −log10 of the molar value. Entries after “also recorded” stand apart in the source; their conditions may differ. Like-named read-outs stand apart in the source and are kept apart here.

Legend:
Type in all cases: cell-based
[1] = target: T1, hRUP38 (Homo sapiens, UniProt P49019); assay: Adenylyl cyclase / cAMP Whole Cell assay in CHO cells stably transfected with hRUP38
T1 construct: expressed in transfected cells
Method: A modified Flash Plate™ Adenylyl Cyclase kit (New England Nuclear; Cat. No. SMP004A) was utilized for direct identification of candidate compounds as agonists to hRUP38 (Seq. Id. Nos. 1 & 2) or hRUP25 (Seq. Id. Nos. 3 & 4) in accordance with the following protocol:
CHO cells stably transfected with hRUP38 were harvested from flasks via non-enzymatic means. The cells were washed in PBS and resuspended in the manufacturer's Assay Buffer. […] To these wells, 100,000 cells in 50 μl of Assay Buffer were added and the mixture was then incubated for 30 minutes at room temperature, with gentle shaking. Following the incubation, 100 μl of Detection Buffer was added to each well, followed by incubation for 2-24 hours. Plates were counted in a Wallac MicroBeta™ plate reader using “Prot. #31” (as per manufacturer instructions).

[2] = system: primary human adipocytes; assay: Inhibition of isoproterenol stimulated lipolysis in human subcutaneous adipocytes; conditions: isoproterenol 100 nM, adipocyte primary cultures from human subcutaneous fat, FIG. 2
[3] = target: T2, hRUP25 (Homo sapiens, UniProt Q8TDS4); assay: Adenylyl cyclase assay in CHO cells expressing hRUP25; conditions: FIG. 1 screening data
T2 construct: expressed in transfected cells; host or cells: CHO cells
Text: FIG. 1. FIG. 1 presents screening data via adenylyl cyclase assay for hRUP38. […] 1-Isopropyl-1H-benzotriazole-5-carboxylic acid has no effect on CHO cells expressing hRUP25.
A modified Flash Plate™ Adenylyl Cyclase kit (New England Nuclear; Cat. No. SMP004A) was utilized for direct identification of candidate compounds as agonists to hRUP38 (Seq. Id. Nos. 1 & 2) or hRUP25 (Seq. Id. Nos. 3 & 4) in accordance with the following protocol: […]

T1 sequence (P49019 whole entry K94N/T173P/F198L/H253R/I317M/I346M): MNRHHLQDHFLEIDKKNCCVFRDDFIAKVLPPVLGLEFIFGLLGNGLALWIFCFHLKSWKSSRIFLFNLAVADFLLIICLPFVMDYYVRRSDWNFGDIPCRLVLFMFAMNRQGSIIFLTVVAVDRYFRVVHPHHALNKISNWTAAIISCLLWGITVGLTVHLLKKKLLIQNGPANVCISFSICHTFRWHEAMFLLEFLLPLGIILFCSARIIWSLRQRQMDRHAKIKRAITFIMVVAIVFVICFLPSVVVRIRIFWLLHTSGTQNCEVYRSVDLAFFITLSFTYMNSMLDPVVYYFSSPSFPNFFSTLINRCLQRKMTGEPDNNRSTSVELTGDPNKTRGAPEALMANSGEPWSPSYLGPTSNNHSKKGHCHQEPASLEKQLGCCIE
T2 sequence (Q8TDS4 whole entry): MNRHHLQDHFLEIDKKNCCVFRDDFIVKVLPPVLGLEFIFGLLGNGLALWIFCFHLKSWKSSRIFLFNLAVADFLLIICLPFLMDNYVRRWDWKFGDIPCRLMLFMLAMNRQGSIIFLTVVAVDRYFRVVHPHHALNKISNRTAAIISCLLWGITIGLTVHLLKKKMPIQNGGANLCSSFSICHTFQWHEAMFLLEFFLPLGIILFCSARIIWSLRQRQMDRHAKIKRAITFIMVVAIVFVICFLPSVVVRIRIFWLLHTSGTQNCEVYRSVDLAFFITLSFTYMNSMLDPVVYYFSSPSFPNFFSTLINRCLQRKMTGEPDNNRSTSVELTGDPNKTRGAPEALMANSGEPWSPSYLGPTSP

CC(C)n1nnc2cc(C(=O)O)ccc21 [Example 6.1, 1-Isopropyl-1H-benzotriazole-5-carboxylic acid]
pEC50 ([1]; average of seven (7) trials, read-out: hRUP38 (EC50) cAMP Whole Cell): 6.41 | pEC50 ([1]; inhibition of forskolin stimulated cAMP, hRUP38-expressing CHO cells, read-out: EC50, adenylyl cyclase assay for hRUP38 (FIG. 1)): 6.78 | inhibition of isoproterenol stimulated lipolysis [2]: dose-dependent manner comparable to that of nicotinic acid; also recorded: dose-dependant manner comparable to that of nicotinic acid | effect on CHO cells expressing hRUP25 [3]: no effect
